# System: P450 2D6
# Assay: Tacrine as substrate of P450 2D6: co-incubation with quinidine in human liver microsomes
# Type: in vitro ADME
# Settings: for 1-Hydroxytacrine / Tacrine: quinidine -
# From the text: U. A. Meyer, J. Gut, T. Kronbach, C. Skoda, U. T. Meier, and T. Catin, "The Molecular Mechanisms of Two Common Polymorphisms of Drug Oxidation-Evidence for Functional Changes in Cytochrome P-450 Isozymes Catalysing Bufuralol and Mephenytoin Oxidation", XENOBIOTICA, Vol 16, pp 449-464 (1986). […] PHARMACOL., Vol 37, pp 155-160 (1989).
smiles,measurement,setting,value
"Cl.Nc1c2c(nc3ccccc13)CCCC2.O [Tacrine, 1,2,3,4-tetrahydro-9-acridinamine monohydrate monohydrochloride]",catalysis by P450 2D6 of metabolism and irreversible binding,,not catalyzed by P450 2D6
same,1-Hydroxytacrine,0 min,0 nMoles per 3 mL incubate
same,Tacrine,0 min,2.13 nMoles per 3 mL incubate
same,metabolites observed,7-hydroxytacrine at incubation times through 40 min,mainly 1-hydroxytacrine with 7-hydroxytacrine also being observed
same,1-Hydroxytacrine,5 min,0.416 nMoles per 3 mL incubate
same,Tacrine,5 min,1.24 nMoles per 3 mL incubate
same,1-Hydroxytacrine,10 min,0.716 nMoles per 3 mL incubate
same,Tacrine,10 min,0.831 nMoles per 3 mL incubate
same,1-Hydroxytacrine,20 min,1.03 nMoles per 3 mL incubate
same,Tacrine,20 min,0.302 nMoles per 3 mL incubate
same,1-Hydroxytacrine,40 min,1.34 nMoles per 3 mL incubate
same,Tacrine,40 min,0 nMoles per 3 mL incubate
same,1-Hydroxytacrine,60 min,1.43 nMoles per 3 mL incubate
same,Tacrine,60 min,0 nMoles per 3 mL incubate

# From patent US5422350A, “Nitrogen substituted acridine and cytochrome P450 inhibitors and methods of use” (priority 1992, dated 1995)
